{"source": "patent US12729381B2", "about": "“Methods and compositions for inactivating interleukin-2-inducible t-cell kinase (ITK)” (priority 2020, dated 2026)", "key": {"[1]": {"test_system": "T cells from GVHD patient blood samples", "assay": "T cells from GVHD patient blood samples treated with SLP76pTYR", "assay_type": "cell-based, human"}, "[2]": {"test_system": "SLP76: ITK signaling", "assay": "Western blot of signaling proteins in human T cells from PBMC stimulated with anti-CD3 (OKT3)", "assay_type": "cell-based", "conditions": "vs vehicle alone", "method": "Western blotting: For protein analysis, T cells were either nonstimulated, or stimulated with anti-CD3 and anti-CD28 for 24 hours overnight, and were lysed with freshly prepared lysis buffer (RIPA Buffer (Fisher Scientific cat #PI89900)+cOmplete Protease Inhibitor Cocktail (Sigma-Aldrich; cat #11697498001)) and centrifuged for 10 minutes at 14000 rpm at 4° C. Protein aliquots of 70 μg of protein were loaded on a 12-18% denaturing polyacrylamide gel and transferred to nitrocellulose membranes for immunoblot analysis using antibodies specific to proteins of interest.\nHuman Samples: According to our IRB protocol (1140566-4), blood samples were obtained by vein puncture, and T cells were isolated from peripheral blood mononuclear cells (PBMC) of regular healthy donors. T cells were isolated from patient and healthy donor samples by Ficoll-Hypaque density centrifugation. The final product was resuspended at 3×10^6 cells/ml in media and stimulated with OKT-3/anti-CD3 ([…]; Ortho Bio-Tech) and anti-human CD28 ([…]; Biolegend; cat #302902) presence of […] of protamine sulfate and 1 mg/ml SLP76pTYR or vehicle for five minutes. T cell lysates were used in western blot analysis.\nITK deficiency is known to enhance the development of regulatory T cells (Tregs) (Elmore et al., 2020, Owen et al., 2019) so the peptide inhibitor was tested to determine whether inhibition of the ITK: SLP76Y145 interactions using SLP76pTYR would induce Tregs. First, the frequency of Tregs was examined by expression of CD4^+ and FoxP3^+ (FIG. 18A). Next, total mouse T cells were stimulated with anti-CD3 (Sugie et al., 2004) in the presence of either SLP76pTYR, nonspecific peptide, or vehicle alone for 5 to 24 hours, and cells were harvested and examined for the presence of Tregs (CD4^+CD25^+FoxP3^+). […] Next, the effects of SLP76pTYR peptide on human PBMC samples from healthy human patients was investigated. T cells from these patients were stimulated with anti-CD3 (OKT3) (Karimi et al., 2005) for 5 minutes in the presence of SLP76pTYR or vehicle alone. […] No differences in stimulated or unstimulated total human AKT (FIG. 18E and FIG. 28H) was observed, providing a showing that the SLP76pTYR peptide has an impact on signaling pathways downstream of SLP76 in both mouse and human T cells. […] Next, the ability of SLP76pTYR peptide to affect the production of proinflammatory cytokines in human PBMCs was investigated. T cells from healthy human were stimulated with anti-CD3 (OKT3) and anti-CD28 in the presence of SLP76pTYR or vehicle alone, along with Brefeldin A. T cells incubated with SLP76pTYR or vehicle alone were also examined in the presence of PMA+lonomycin and Brefeldin A for 6 hours.\nMore specifically, FIGS. 18A-18F depict Novel peptide SLP76pTYR specifically targets SLP76: ITK signaling and enhances Treg cell development. (FIG. 18A) Murine CD4^+ T cells were examine for total CD4+ and FOXP3 expression prior to treatment with SLP76pTYR. n=3, and one representative experiment is shown. (FIG. 18B) Total T cells stimulated in the presence of SLP76pTYR, nonspecific peptide, or vehicle alone were examined for total CD4 cells that are FoxP3^+. n=3, and one representative experiment is shown. (FIG. 18C) Quantification of three experiments as in (A) (FIG. 18D) Cell lysates were obtained from mouse T cells stimulated with anti-CD3 and anti-CD28 in the presence of SLP76pTYR, or vehicle alone. […]"}, "[3]": {"test_system": "human T cells", "assay": "Intracellular IFN-γ and TNF-α production by primary human T cells from PBMCs (flow cytometry)", "assay_type": "cell-based", "conditions": "anti-CD3/anti-CD28 with Brefeldin A, 6 hours; vs vehicle alone", "method": "ITK deficiency is known to enhance the development of regulatory T cells (Tregs) (Elmore et al., 2020, Owen et al., 2019) so the peptide inhibitor was tested to determine whether inhibition of the ITK: SLP76Y145 interactions using SLP76pTYR would induce Tregs. First, the frequency of Tregs was examined by expression of CD4^+ and FoxP3^+ (FIG. 18A). Next, total mouse T cells were stimulated with anti-CD3 (Sugie et al., 2004) in the presence of either SLP76pTYR, nonspecific peptide, or vehicle alone for 5 to 24 hours, and cells were harvested and examined for the presence of Tregs (CD4^+CD25^+FoxP3^+). […] Next, the effects of SLP76pTYR peptide on human PBMC samples from healthy human patients was investigated. T cells from these patients were stimulated with anti-CD3 (OKT3) (Karimi et al., 2005) for 5 minutes in the presence of SLP76pTYR or vehicle alone. […]\nMore specifically, FIGS. 18A-18F depict Novel peptide SLP76pTYR specifically targets SLP76: ITK signaling and enhances Treg cell development. […] (FIG. 18C) Quantification of three experiments as in (A) (FIG. 18D) Cell lysates were obtained from mouse T cells stimulated with anti-CD3 and anti-CD28 in the presence of SLP76pTYR, or vehicle alone. […] Intracellular IFN-γ and TNF-α expression by CD8^+ and CD4+ T cells was determined by flow cytometry. […]"}}, "note": "Non-standard residues stand in square brackets, D forms with d. No end group written: not given here. *: point of attachment. FITC = O=C1OC2(c3ccc(O)cc3Oc3cc(O)ccc32)c2ccc(NC(=S)*)cc21; pY = N[C@@H](Cc1ccc(OP(=O)(O)O)cc1)C(=O)O"}
{"substance": "FITC Dye ^132NEEEEAPVEDDADpYEPPPSNDEEA^155-TAT ({FITC}-NEEEEAPVEDDAD[pY]EPPPSNDEEAGRKKRRQRRRPQ) [SLP76pTYR]", "values": [{"measurement": "IFN-γ production", "setting": "[1]", "result": "significantly reducing IFN-γ and TNF-αproduction"}, {"measurement": "TNF-α production", "setting": "[1]", "result": "significantly reducing IFN-γ and TNF-αproduction"}, {"measurement": "development of FoxP3+ regulatory T cells", "setting": "[1]", "result": "enhances the development of FoxP3^+ regulatory T cells"}, {"measurement": "phosphorylation of ERK, stimulated", "setting": "[2]; anti-CD3 (OKT3) for 5 minutes", "result": "reduced phosphorylation of PLCγ1 and ERK"}, {"measurement": "phosphorylation of PLCγ1, stimulated", "setting": "[2]; anti-CD3 (OKT3) for 5 minutes", "result": "reduced phosphorylation of PLCγ1 and ERK"}, {"measurement": "non-stimulated phospho ERK", "setting": "[2]; non-stimulated T cells", "result": "No differences in non-stimulated phospho PLCγ1 and ERK were observed"}, {"measurement": "non-stimulated phospho PLCγ1", "setting": "[2]; non-stimulated T cells", "result": "No differences in non-stimulated phospho PLCγ1 and ERK were observed"}, {"measurement": "total AKT and stimulated or unstimulated phospho AKT", "setting": "[2]", "result": "No differences in total AKT or either stimulated or unstimulated phospho AKT was observed"}, {"measurement": "IFN-γ production", "setting": "[3]", "result": "significantly reduced IFN-γ and TNF-α production"}, {"measurement": "TNF-α production", "setting": "[3]", "result": "significantly reduced IFN-γ and TNF-α production"}]}
